Values quoted from earlier work, collected in patent EP0983068B1, “THE USE OF 1,2,4-TRIAZOLO 1,5-c]PYRIMIDINE HETEROCYCLIC ANALOGUES FOR THE PREPARATION OF MEDICAMENTS USEFUL FOR THE TREATMENT OF CEREBROVASCULAR DISTURBANCES” (SCHERING-PLOUGH S.p.A., priority 1997, dated 1998).

System: cerebral ischemia
Details: Life Sciences, 55, 61-65, 1994; Brain Research 705, 79-84, 1995

For CP66713, the “effect in cerebral ischemia animal models” value is given as “act favourably”.
